Experiments:
[1] = target: T1, Alpha2A adrenergic receptor (Homo sapiens, UniProt P08913); test: Ca2+ flux functional assay at Alpha2A; format: cell-based; conditions: for maximal efficacy at Alpha2A: "higher" is compared to the N-methyl compound LSD; for Emax: agonist, Ca2+ flux, max dose, read-out: Alpha 2A % Act @ Max Dose
T1 construct: expressed in transfected cells
T1 sequence (P08913 1-465): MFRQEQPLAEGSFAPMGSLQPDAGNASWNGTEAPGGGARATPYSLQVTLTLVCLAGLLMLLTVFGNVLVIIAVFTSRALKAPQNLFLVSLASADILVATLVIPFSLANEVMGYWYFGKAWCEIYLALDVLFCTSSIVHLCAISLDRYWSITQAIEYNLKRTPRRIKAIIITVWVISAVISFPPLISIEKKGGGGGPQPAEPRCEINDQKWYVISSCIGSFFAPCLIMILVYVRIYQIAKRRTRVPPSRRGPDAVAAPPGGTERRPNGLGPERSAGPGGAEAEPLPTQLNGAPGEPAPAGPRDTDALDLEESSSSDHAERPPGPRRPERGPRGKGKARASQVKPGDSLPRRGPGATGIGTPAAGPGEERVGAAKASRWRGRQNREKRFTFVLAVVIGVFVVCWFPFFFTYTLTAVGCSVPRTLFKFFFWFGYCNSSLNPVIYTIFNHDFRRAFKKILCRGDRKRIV
Experimental: Functional Assays at Adrenergic and Dopamine Receptors. Agonist activity at Alpha1A, Alpha2A, D1, and D2 receptors was determined using a FLIPR Ca^2+ flux assay at WuXi AppTec (Hong Kong) Limited according to their standard protocols. Briefly, stably transfected cells expressing the receptor of interest were grown and plated in a 384 well plate and incubated at 37° C. and 5% CO2 overnight. A solution of 250 mM probenecid in 1 mL FLIPR assay buffer was prepared fresh. This was combined with a fluorescent dye (Fluo-4 Direct™) to make a final assay concentration of 2.5 mM. […] The fluorescent dye was then added to the assay plate along with assay buffer to a final volume of 40 μL. The cell plate was incubated for 50 min at 37° C. and 5% CO2 and placed into the FLIPR Tetra along with the compound plate. 10 μL of references and compounds were then transferred from the compound plate into the cell plate and the fluorescent signal was read.

C57BL/6 mice = test: Automated mouse head twitch response (HTR) assay (video tracking); format: in vivo; conditions: sc
Method in brief: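 Adult male C57BL/6 mice (8-10 weeks, 18-25 g) received a single drug dose and were video-recorded in a small open field for 20 min immediately after dosing. HTR events were detected automatically from periodic ear-position deviations above preset thresholds. Values are total HTR counts over 20 min and HTR/min in 2-min bins, mean±SEM.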

Row | SMILES | maximal efficacy at Alpha2A [1] | Emax [1] | # HTR/20 min at Most Efficacious Dose (C57BL/6 mice; 20 min recording, mean, at each compound's most efficacious dose (35*, 43*, 44*: suppressed below vehicle 14.5, dose is that of least suppression)) | Most Efficacious Dose for Peak HTR/min (C57BL/6 mice; dose giving highest peak HTR/min (35*, 43*, 44*: dose that resulted in the least suppression)) | Most Efficacious Dose for # HTR/20 min (C57BL/6 mice; dose giving most HTR/20 min (35*, 43*, 44*: dose that resulted in the least suppression)) | Peak HTR/min at Most Efficacious Dose (C57BL/6 mice; rate over 2-min bins, mean, at each compound's most efficacious dose (35*, 43*, 44*: suppressed below vehicle 1.62, dose is that of least suppression))
1 | CCN(CC)C(=O)[C@@H]1C=C2c3cccc4[nH]cc(c34)C[C@H]2N(CCc2ccccc2OC)C1 [Compound 11, (6aR,9R)—N,N-diethyl-7-(2-methoxyphenethyl)-4,6,6,7,8,9-hexahydroindolo[4,3-fg]quinoline-9-carboxamide] | very low efficacy agonists |  |  |  |  | 
2 | CCCN1C[C@H](C(=O)N2[C@@H](C)C[C@@H]2C)C=C2c3cccc4[nH]cc(c34)C[C@H]21 [Compound 4, ((2S,4S)-2,4-dimethylazetidin-1-yl)((6aR,9R)-7-propyl-4,6,6a,7,8,9-hexahydroindolo[4,3-fg]quinolin-9-yl)methanone] | substantially higher maximal efficacy | 103% |  |  |  | 
3 | CCCN1C[C@H](C(=O)N(CC)CC)C=C2c3cccc4[nH]cc(c34)C[C@H]21 [Compound 1, (6aR,9R)—N,N-diethyl-7-propyl-4,6,6a,7,8,9-hexahydroindolo[4,3-fg]quinoline-9-carboxamide] | substantially higher maximal efficacy | 58.3% | 20.625 HTR/20 min | (0.32) mg/kg, sc | (0.32) mg/kg, sc | 2.19 HTR/min
4 | CCCN1C[C@H](C(=O)N[C@H](C)CC)C=C2c3cccc4[nH]cc(c34)C[C@H]21 [Compound 3, (6aR,9R)—N—((R)-sec-butyl)-7-propyl-4,6,6a,7,8,9-hexahydroindolo[4,3-fg]quinoline-9-carboxamide] | substantially higher maximal efficacy | 96.8% |  |  |  | 
5 | CCN(CC)C(=O)[C@@H]1C=C2c3cccc4[nH]cc(c34)C[C@H]2N(CCCF)C1 [Compound 2, (6aR,9R)—N,N-diethyl-7-(3-fluoropropyl)-4,6,6a,7,8,9-hexahydroindolo[4,3-fg]quinoline-9-carboxamide] | substantially higher maximal efficacy | 65% |  |  |  | 
6 | CCN(CC)C(=O)[C@@H]1C=C2c3cccc4[nH]cc(c34)C[C@H]2N(Cc2ccccc2OC)C1 [Compound 10, (6aR,9R)—N,N-diethyl-7-(2-methoxybenzyl)-4,6,6a,7,8,9-hexahydroindolo[4,3-fg]quinoline-9-carboxamide] | very low efficacy agonists | 36.5% |  |  |  | 
7 | CCCN1C[C@H](C(=O)NC(CC)CC)C=C2c3cccc4[nH]cc(c34)C[C@H]21 [Compound 6, (6aR,9R)—N-(pentan-3-yl)-7-propyl-4,6,6a,7,8,9-hexahydroindolo[4,3-fg]quinoline-9-carboxamide] | substantially higher maximal efficacy |  |  |  |  | 

From patent US20260317319A1, “NOVEL ERGOLINES AND METHODS OF TREATING MOOD DISORDERS” (Gilgamesh Pharma Inc., priority 2023, published 2026)
